This is an account of results in ChEMBL document CHEMBL3407472, “Multi-parameter optimization of aza-follow-ups to BI 207524, a thumb pocket 1 HCV NS5B polymerase inhibitor. Part 2: Impact of lipophilicity on promiscuity and in vivo toxicity” (Bioorg Med Chem Lett, 2015).

Series [1] is described as follows: Half life in dog liver microsomes at 2 uM. Format: ADME, Canis lupus familiaris.
The nature of series [2]: Lipophilicity, log D of the compound at pH 7.4. Format: physicochemical. To be noted: buffer.
Series [3] in a line: Volume of distribution at steady state in rat at 5 mg/kg, po and 2 mg/kg, iv. Type of series: ADME, organism-based. Conditions: in vivo, read-out: Vdss.
A short description of series [4]: Cmax in cynomolgous monkey at 5 mg/kg, po and 2 mg/kg, iv. Format: ADME, organism-based, Macaca fascicularis. Conditions: cynomolgus monkey, in vivo.
A short description of series [5]: AUC in dog at 5 mg/kg, po and 2 mg/kg, iv. Type of series: ADME, organism-based, Canis lupus familiaris. Conditions: plasma.
The nature of series [6]: Half life in rat at 5 mg/kg, po and 2 mg/kg, iv. Format: ADME, organism-based. Conditions: in vivo.
A short description of series [7]: Bioavailability in dog at 5 mg/kg, po and 2 mg/kg, iv. Conditions: in vivo. Format: ADME, organism-based, Canis lupus familiaris.
Series [8] can be described thus: Half life in rat liver microsomes at 2 uM. Type of series: ADME.
The nature of series [9]: Cmax in dog at 5 mg/kg, po and 2 mg/kg, iv. Conditions: in vivo. Format: ADME, organism-based, Canis lupus familiaris.
Series [10] is described as follows: Cmax in rat at 5 mg/kg, po and 2 mg/kg, iv. Conditions: in vivo. Type of series: ADME, organism-based.
Series [11] has as its system Hepatitis C virus. The series is described as follows: Antiviral activity against Hepatitis C virus genotype 1b infected in human Huh cells assessed as inhibition of viral replication by RT-PCR-based replicon assay. Format: functional, cell-based, Hepacivirus hominis.
Series [12] is described as follows: Half life in dog at 5 mg/kg, po and 2 mg/kg, iv. Format: ADME, organism-based, Canis lupus familiaris. To be noted: in vivo.
The nature of series [13]: Volume of distribution at steady state in cynomolgous monkey at 5 mg/kg, po and 2 mg/kg, iv. Format: ADME, organism-based, Macaca fascicularis. Conditions: cynomolgus monkey, in vivo, read-out: Vdss.
A short description of series [14]: Clearance in dog at 5 mg/kg, po and 2 mg/kg, iv. Type of series: ADME, organism-based, Canis lupus familiaris. Conditions: in vivo.
Series [15] is described as follows: Volume of distribution at steady state in dog at 5 mg/kg, po and 2 mg/kg, iv. Type of series: ADME, organism-based, Canis lupus familiaris. Conditions: in vivo, read-out: Vdss.
Series [16] in a line: Bioavailability in rat at 5 mg/kg, po and 2 mg/kg, iv. Format: ADME, organism-based. Conditions: in vivo.
Series [17] is described as follows: Clearance in rat at 5 mg/kg, po and 2 mg/kg, iv. Type of series: ADME, organism-based. To be noted: in vivo.
Series [18] can be described thus: Clearance in cynomolgous monkey at 5 mg/kg, po and 2 mg/kg, iv. Type of series: ADME, organism-based, Macaca fascicularis. To be noted: cynomolgus monkey, in vivo.
Series [19] is described as follows: Half life in cynomolgous monkey liver microsomes at 2 uM. Format: ADME, Macaca fascicularis. Conditions: cynomolgus monkey.
Series [20] can be described thus: AUC in rat at 5 mg/kg, po and 2 mg/kg, iv. Type of series: ADME, organism-based. Conditions: plasma.
In series [21] the test system is Hepatitis C virus. The series is described as follows: Antiviral activity against Hepatitis C virus genotype 1a infected in human Huh cells assessed as inhibition of viral replication by RT-PCR-based replicon assay. Type of series: functional, cell-based, Hepacivirus hominis. Conditions: subtype 1a.
Series [22] in a line: Half life in cynomolgous monkey at 5 mg/kg, po and 2 mg/kg, iv. Type of series: ADME, organism-based, Macaca fascicularis. To be noted: cynomolgus monkey, in vivo.
Series [23] is described as follows: Half life in human liver microsomes at 2 uM. Type of series: ADME.
Series [24] can be described thus: Ratio of drug uptake in liver to plasma of rat at 5 mg/kg, po and 2 mg/kg, iv after 6 to 8 hrs. Format: ADME, organism-based.
A short description of series [25]: AUC in cynomolgous monkey at 5 mg/kg, po and 2 mg/kg, iv. Format: ADME, organism-based, Macaca fascicularis. To be noted: cynomolgus monkey, plasma.
Series [26] can be described thus: Bioavailability in cynomolgous monkey at 5 mg/kg, po and 2 mg/kg, iv. Format: ADME, organism-based, Macaca fascicularis. To be noted: cynomolgus monkey, in vivo.
Series [27] in a line: Permeability from apical to basolateral side of human Caco2 cells. Format: ADME, cell-based. Conditions: Caco-2, read-out: permeability.
The target of series [28] is Voltage-gated inwardly rectifying potassium channel KCNH2 (Homo sapiens, UniProt Q12809). Kind of series: Inhibition of human ERG channel.
Series [29] can be described thus: Lipophilicity, log D of the compound. To be noted: octanol/water. Type of series: physicochemical.
For series [30], the target named is T1, Amine oxidase [flavin-containing] A (Homo sapiens, UniProt P21397).
T1 sequence (P21397 whole entry): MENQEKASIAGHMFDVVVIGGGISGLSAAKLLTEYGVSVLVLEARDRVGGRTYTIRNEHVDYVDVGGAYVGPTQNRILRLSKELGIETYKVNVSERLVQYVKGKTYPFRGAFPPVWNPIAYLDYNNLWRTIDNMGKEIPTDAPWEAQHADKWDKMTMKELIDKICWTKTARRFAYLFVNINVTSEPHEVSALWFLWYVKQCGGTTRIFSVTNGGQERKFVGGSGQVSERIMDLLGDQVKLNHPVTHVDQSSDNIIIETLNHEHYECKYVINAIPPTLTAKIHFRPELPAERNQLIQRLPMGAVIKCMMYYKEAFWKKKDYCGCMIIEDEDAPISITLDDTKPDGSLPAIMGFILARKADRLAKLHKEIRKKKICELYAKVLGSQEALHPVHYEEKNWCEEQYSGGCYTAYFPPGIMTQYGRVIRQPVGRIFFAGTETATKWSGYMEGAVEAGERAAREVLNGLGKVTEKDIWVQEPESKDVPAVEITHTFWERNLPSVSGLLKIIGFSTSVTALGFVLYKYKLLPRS
Kind of series: Inhibition of MAO-A (unknown origin).

The target in series [31] is 5-hydroxytryptamine receptor 2A (Homo sapiens, UniProt P28223). Kind of series: Inhibition of serotonin 5-HT2A receptor (unknown origin).
A further series addresses T2, Cathepsin G (Homo sapiens, UniProt P08311).
T2 sequence (P08311 whole entry): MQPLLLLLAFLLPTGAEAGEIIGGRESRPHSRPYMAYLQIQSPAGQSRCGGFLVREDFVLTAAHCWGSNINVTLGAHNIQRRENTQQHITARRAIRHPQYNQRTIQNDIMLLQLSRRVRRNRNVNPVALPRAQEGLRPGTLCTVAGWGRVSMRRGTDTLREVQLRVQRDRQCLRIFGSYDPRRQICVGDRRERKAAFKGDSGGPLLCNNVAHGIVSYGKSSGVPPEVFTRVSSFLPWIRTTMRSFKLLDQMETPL
The series is described as follows: Inhibition of cathepsin G (unknown origin).

Series [32] in a line: Cmax in rat at 2 mg/kg, po each in 0.5% Methylcellulose and 0.3% Tween-80 and 1% N-methylpyrrolidone. Also on record: dose 2 mg/kg, route oral. Conditions: in vivo. Type of series: ADME, organism-based.
A further series concerns the target D(1A) dopamine receptor (Homo sapiens, UniProt P21728). The series is described as follows: Inhibition of dopamine D1 receptor (unknown origin).
The nature of series [33]: Plasma concentration in rat at 2 mg/kg, po each in 0.5% Methylcellulose and 0.3% Tween-80 and 1% N-methylpyrrolidone after 2 hrs. Format: ADME, organism-based. Also noted: dose 2 mg/kg, route oral.

pEC50, pIC50: −log10 of the molar value.

5-hydroxytryptamine receptor 2A, sequence (P28223 whole entry): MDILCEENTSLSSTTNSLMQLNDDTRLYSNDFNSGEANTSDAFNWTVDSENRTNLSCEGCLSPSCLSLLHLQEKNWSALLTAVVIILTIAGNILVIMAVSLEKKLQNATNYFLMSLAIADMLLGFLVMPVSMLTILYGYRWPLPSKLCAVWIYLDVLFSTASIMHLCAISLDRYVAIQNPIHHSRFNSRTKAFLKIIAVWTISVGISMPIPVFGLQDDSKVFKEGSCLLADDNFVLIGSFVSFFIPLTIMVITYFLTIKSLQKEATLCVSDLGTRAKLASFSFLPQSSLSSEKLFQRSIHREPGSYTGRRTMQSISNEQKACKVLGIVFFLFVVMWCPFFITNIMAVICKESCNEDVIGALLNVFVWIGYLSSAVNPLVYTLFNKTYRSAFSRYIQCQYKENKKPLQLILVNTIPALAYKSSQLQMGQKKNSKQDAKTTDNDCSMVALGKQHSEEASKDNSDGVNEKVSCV
D(1A) dopamine receptor, sequence (P21728 whole entry): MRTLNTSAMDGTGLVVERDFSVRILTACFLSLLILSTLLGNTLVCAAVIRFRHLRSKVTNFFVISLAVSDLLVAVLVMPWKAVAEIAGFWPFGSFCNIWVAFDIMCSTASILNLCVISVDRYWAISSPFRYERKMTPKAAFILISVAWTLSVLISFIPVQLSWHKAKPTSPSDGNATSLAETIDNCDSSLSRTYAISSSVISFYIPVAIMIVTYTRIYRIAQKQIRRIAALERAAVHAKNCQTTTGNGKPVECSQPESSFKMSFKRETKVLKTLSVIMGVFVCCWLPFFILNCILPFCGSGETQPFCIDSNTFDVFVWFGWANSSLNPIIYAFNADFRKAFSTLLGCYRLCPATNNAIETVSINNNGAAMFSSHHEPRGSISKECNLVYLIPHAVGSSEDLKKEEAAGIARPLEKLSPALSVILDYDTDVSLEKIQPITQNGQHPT
Voltage-gated inwardly rectifying potassium channel KCNH2, sequence (Q12809 whole entry): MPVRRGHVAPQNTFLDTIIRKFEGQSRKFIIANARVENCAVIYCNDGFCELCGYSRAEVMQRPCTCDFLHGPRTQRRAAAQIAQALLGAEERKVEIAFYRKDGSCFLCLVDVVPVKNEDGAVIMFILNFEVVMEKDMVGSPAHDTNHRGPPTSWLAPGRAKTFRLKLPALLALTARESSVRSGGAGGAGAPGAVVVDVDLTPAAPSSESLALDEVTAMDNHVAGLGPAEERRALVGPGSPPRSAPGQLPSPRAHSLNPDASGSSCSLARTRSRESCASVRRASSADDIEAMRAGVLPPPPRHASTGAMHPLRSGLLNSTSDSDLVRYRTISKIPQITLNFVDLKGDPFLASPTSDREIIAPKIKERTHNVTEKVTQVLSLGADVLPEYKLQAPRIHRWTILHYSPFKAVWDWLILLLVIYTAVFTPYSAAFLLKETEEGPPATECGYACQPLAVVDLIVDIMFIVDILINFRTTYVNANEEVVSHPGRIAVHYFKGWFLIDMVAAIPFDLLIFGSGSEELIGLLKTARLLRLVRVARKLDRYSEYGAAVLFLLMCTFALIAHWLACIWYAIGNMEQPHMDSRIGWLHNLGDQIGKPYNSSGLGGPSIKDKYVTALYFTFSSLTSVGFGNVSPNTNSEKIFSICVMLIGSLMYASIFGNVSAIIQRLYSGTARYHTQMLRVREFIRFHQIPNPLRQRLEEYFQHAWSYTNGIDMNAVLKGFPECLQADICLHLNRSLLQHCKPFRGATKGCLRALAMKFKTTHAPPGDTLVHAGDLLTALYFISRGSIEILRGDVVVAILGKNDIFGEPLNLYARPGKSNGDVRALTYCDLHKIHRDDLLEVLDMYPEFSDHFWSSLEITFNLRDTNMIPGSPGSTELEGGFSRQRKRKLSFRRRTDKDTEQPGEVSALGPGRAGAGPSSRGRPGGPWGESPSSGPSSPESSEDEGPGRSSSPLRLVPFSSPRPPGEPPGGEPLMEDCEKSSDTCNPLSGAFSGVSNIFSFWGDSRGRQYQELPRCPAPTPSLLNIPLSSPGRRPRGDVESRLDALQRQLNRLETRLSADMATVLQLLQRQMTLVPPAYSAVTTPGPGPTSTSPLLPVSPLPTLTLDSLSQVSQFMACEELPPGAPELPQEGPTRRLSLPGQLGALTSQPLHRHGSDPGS

Take `CCOc1nc(NC(=O)C2(NC(=O)c3ccc4c(C5CCCC5)c(-c5ccc(F)cn5)n(C)c4c3)CCC2)ccc1/C=C/C(=O)O`: the half-life at 2 µM in series [1] was determined as 2.52 h; in series [8] it was 0.95 h; in [19], 0.433 h; in series [23], 1.37 h. For the same compound, the logD in series [2] is more than 4.7. The Vd is 0.44 L/kg in series [3], 0.47 L/kg in series [13] and 0.36 L/kg in series [15]. Also, the results for the Cmax in series [4], in series [9] and in [10] were 3.8 µM, 8.6 µM and 5 µM, respectively. The exposure (AUC) in series [5] stood at 48 µM·h; in [20], 11 µM·h; in [25], 12 µM·h. In addition, the half-life in series [6] is 2.1 h; in series [12], 5.1 h; in series [22], 2.3 h. The bioavailability in series [7] worked out at 61%; in series [16], 44%; in series [26], 44%. The pEC50 in the series on Hepatitis C virus [11] was 8.00; with Hepatitis C virus [21] it was 7.62. For the same compound, the figures for the clearance in series [14], in series [17] and in series [18] were 1.9 mL/min/kg, 4.9 mL/min/kg and 4.6 mL/min/kg, respectively. Further, in series [24], the Kp was determined as 6. For the same compound, in series [27], the Papp A→B came to 14 ×10⁻⁶ cm/s. In series [28], this compound had a pIC50 of 5.68.

Consider `CCOc1nc(NC(=O)C(C)(C)NC(=O)c2ccc3c(C4CCCC4)c(-c4ccc(F)cn4)n(C)c3c2)ccc1/C=C/C(=O)O`, for which the logD in [29] and in [2] was 3.5 each time. The half-life at 2 µM in series [1] worked out at 3.13 h; in series [8] it was 1.3 h; in series [19], 0.217 h; in [23] it was 1.5 h. Also, the Vd in series [3] is 1.43 L/kg; in series [13], 0.4 L/kg; in series [15], 0.48 L/kg. Also, the Cmax in series [4] came to 0.44 µM; in series [9] it was 7.2 µM; in series [10] it was 3.6 µM; in [32], 3.6 µM. Further, the exposure (AUC) came out at 21 µM·h in series [5], 7.2 µM·h in series [20] and 1.2 µM·h in series [25]. The half-life is 2.8 h in [6], 2.3 h in series [12] and 0.7 h in series [22]. For the same compound, the bioavailability in series [7] is 69%; in series [16], 71%; in series [26] it was 12%. The negative-log IC50 (pIC50) in series [30] is 5.89; in series [31] it was 5.22; at Cathepsin G, 5.22; against D(1A) dopamine receptor it was 5.22. For the same compound, the pEC50 in the series with Hepatitis C virus [11] was 8.30; in the series with Hepatitis C virus [21] it was 7.64. Further, the clearance in [14] stood at 4.6 mL/min/kg; in series [17] it was 13.1 mL/min/kg; in series [18] it was 13.9 mL/min/kg. In addition, in [24], the concentration ratio (Kp) was 13.5.

As to `CCOc1nc(NC(=O)C(C)(C)NC(=O)c2ccc3c(C4CCCC4)c(-c4ncc(Cl)cn4)n(C)c3c2)cnc1/C=C/C(=O)O`, the logD in series [29] and in series [2] was 3.3 in each case. In addition, the half-life at 2 µM in series [8] was 1.82 h; in [23] it was 2.3 h. Also, the negative-log EC50 (pEC50) was 7.92 in the series on Hepatitis C virus [11] and 7.68 with Hepatitis C virus [21]. This compound showed a pIC50 in series [31] of 5.28. In series [32], the peak level (Cmax) was 0.9 µM.

In the case of `CCOc1nc(NC(=O)C(C)(C)NC(=O)c2ccc3c(C4CCCC4)c(-c4ccc(Cl)cn4)n(C)c3c2)cnc1/C=C/C(=O)O`, the logD in [29] and in series [2] was 2.6 each time. The concentration at 2 h in series [33] came to 0.66 µM. The half-life at 2 µM was more than 5 h in series [8] and 4.6 h in series [23]. Also, in the series with Hepatitis C virus [11], the negative-log EC50 (pEC50) was 8.22. This compound had a peak concentration (Cmax) in [32] of 0.66 µM.
